Assay results taken from patent US9670227B2, “Thienopyrimidine derivatives, a process for their preparation and pharmaceutical compositions containing them” (LES LABORATOIRES SERVIER, priority 2013, dated 2017).
Like-named read-outs stand apart in the source and are kept apart here.

Columns and labels:
Mcl-1 protein = Mcl-1 protein (UniProtKB primary accession number: Q07820) (Homo sapiens, UniProt Q07820); assay: Inhibition of Mcl-1 by fluorescence polarisation, Method 1; assay type: binding; details: read-out: IC50 (M) Mcl-1 FP
Summary of the method: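 An 11-point DMSO dilution of compound is mixed with buffer (10 mM HEPES, 150 mM NaCl, 0.05% Tween 20, pH 7.4) carrying 1 nM fluorescein-labelled ligand and 5 nM Mcl-1, final concentrations. Displacement is monitored by fluorescence polarisation.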

[1] = tested on: H929 multiple myeloma tumour line; assay: In vitro cytotoxicity, Microculture Tetrazolium Assay; assay type: cell-based
Method: The cytotoxicity studies were carried out on the H929 multiple myeloma tumour line.
The cells are distributed onto microplates and exposed to the test compounds for 48 hours.

[2] = fluorescence polarisation test, Method 2 values are underlined in the patent (underlining not visible here)
[3] = H929 cells, 48 hours exposure, MTT, read-out: IC50 (μM) MTT H929
[4] = Homo sapiens, NCI-H929, 48 h, H929 cells, 48 hours exposure, MTT, read-out: IC50 (μM) MTT H929
[5] = Homo sapiens, NCI-H929, 48 h, read-out: IC50 (μM) MTT H929, H929 cells, 48 hours exposure, MTT
[6] = fluorescence polarisation, Method 1, or Method 2

Mcl-1 protein, sequence (Q07820 whole entry): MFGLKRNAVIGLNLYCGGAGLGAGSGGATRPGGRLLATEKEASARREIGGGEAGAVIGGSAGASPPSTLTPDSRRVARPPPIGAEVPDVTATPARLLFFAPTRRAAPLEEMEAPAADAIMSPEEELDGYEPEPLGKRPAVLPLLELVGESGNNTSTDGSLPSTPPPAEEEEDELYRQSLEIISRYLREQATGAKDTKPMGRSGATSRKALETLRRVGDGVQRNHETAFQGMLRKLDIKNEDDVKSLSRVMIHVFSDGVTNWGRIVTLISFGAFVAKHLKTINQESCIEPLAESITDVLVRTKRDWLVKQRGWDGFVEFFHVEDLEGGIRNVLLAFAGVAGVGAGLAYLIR

SMILES | IC50 (Mcl-1 protein; [2]) [M] | IC50 [1, 3] [µM] | IC50 [1, 4] [µM] | IC50 [1, 5] [µM] | IC50 (Mcl-1 protein; [6]) [M]
Cc1c(-c2c(-c3ccc(F)cc3)sc3ncnc(OC(Cc4ccccc4OCc4cnccn4)C(=O)O)c23)ccc(OC2CCCN(C)C2)c1Cl (single isomer, unassigned) [Example 141, (2R)-2-{[(5Sa)-5-{3-chloro-2-methyl-4-[((3S or R)-1-methylpiperidin-3-yl)oxy]phenyl}-6-(4-fluorophenyl)thieno[2,3-d]pyrimidin-4-yl]oxy}-3-[2-(pyrazin-2-ylmethoxy)phenyl]propanoic acid] | 3.1e-08 | 0.27 | – | – | –
Cc1c(-c2c(-c3ccc(F)cc3)sc3ncnc(OC(Cc4ccccc4OCc4cnccn4)C(=O)O)c23)ccc(OC2CCCN(C)C2)c1Cl (single isomer, unassigned) [Example 142, (2R)-2-{[(5Sa)-5-{3-chloro-2-methyl-4-[((3R or S)-1-methylpiperidin-3-yl)oxy]phenyl}-6-(4-fluorophenyl)thieno[2,3-d]pyrimidin-4-yl]oxy}-3-[2-(pyrazin-2-ylmethoxy)phenyl]propanoic acid] | 4.2e-08 | 1.67 | – | – | –
COc1ccccc1CC(Oc1ncnc2sc(-c3ccco3)c(-c3ccc(OC4CCCN(C)C4)c(Cl)c3C)c12)C(=O)O (single isomer, unassigned) [Example 301, (2R)-2-{[(5Sa)-5-{3-chloro-2-methyl-4-[((3R or S)-1-methylpiperidin-3-yl)oxy]phenyl}-6-(furan-2-yl)thieno[2,3-d]pyrimidin-4-yl]oxy}-3-(2-methoxyphenyl)propanoic acid] | 1.2e-08 | 0.108 | – | – | –
COc1ccccc1CC(Oc1ncnc2sc(-c3ccco3)c(-c3ccc(OC4CCCN(C)C4)c(Cl)c3C)c12)C(=O)O (single isomer, unassigned) [Example 302, (2R)-2-{[(5Sa)-5-{3-chloro-2-methyl-4-[((3S or R)-1-methylpiperidin-3-yl)oxy]phenyl}-6-(furan-2-yl)thieno[2,3-d]pyrimidin-4-yl]oxy}-3-(2-methoxyphenyl)propanoic acid] | 1.4e-08 | 1.59 | – | – | –
COc1ccccc1CC(Oc1ncnc2sc(-c3ccco3)c(-c3ccc(OC4CCNC4)c(Cl)c3C)c12)C(=O)O (single isomer, unassigned) [Example 305, (2R)-2-({(5Sa)-5-[3-chloro-2-methyl-4-((3S or R)-pyrrolidin-3-yloxy)phenyl]-6-(furan-2-yl)thieno[2,3-d]pyrimidin-4-yl}oxy)-3-(2-methoxyphenyl) propanoic acid] | 6.9e-08 | – | 1.64 | – | –
COc1ccccc1CC(Oc1ncnc2sc(-c3ccco3)c(-c3ccc(OC4CCNC4)c(Cl)c3C)c12)C(=O)O (single isomer, unassigned) [Example 306, (2R)-2-({(5Sa)-5-[3-chloro-2-methyl-4-((3R or S)-pyrrolidin-3-yloxy)phenyl]-6-(furan-2-yl)thieno[2,3-d]pyrimidin-4-yl}oxy)-3-(2-methoxyphenyl)propanoic acid] | 1.4e-08 | 1.12 | – | – | –
COc1ccccc1CC(Oc1ncnc2sc(-c3ccco3)c(-c3ccc(OC4CN5CCC4CC5)c(Cl)c3C)c12)C(=O)O (single isomer, unassigned) [Example 307, (2R)-2-({(5Sa)-5-[4-((3S or R)-1-azabicyclo[2.2.2]oct-3-yloxy)-3-chloro-2-methylphenyl]-6-(furan-2-yl)thieno[2,3-d]pyrimidin-4-yl}oxy)-3-(2-methoxyphenyl)propanoic acid] | 8.3e-09 | – | 0.998 | – | –
COc1ccccc1CC(Oc1ncnc2sc(-c3ccco3)c(-c3ccc(OC4CN5CCC4CC5)c(Cl)c3C)c12)C(=O)O (single isomer, unassigned) [Example 308, (2R)-2-({(5Sa)-5-[4-((3R or S)-1-azabicyclo[2.2.2]oct-3-yloxy)-3-chloro-2-methylphenyl]-6-(furan-2-yl)thieno[2,3-d]pyrimidin-4-yl}oxy)-3-(2-methoxyphenyl)propanoic acid] | 5.9e-09 | 1.5 | – | – | –
COc1ccccc1CC(Oc1ncnc2sc(-c3ccco3)c(-c3ccc(OCC4CCCCN4C)c(Cl)c3C)c12)C(=O)O (single isomer, unassigned) [Example 309, (2R)-2-{[(5Sa)-5-{3-chloro-2-methyl-4-[((2S or R)-1-methylpiperidin-2-yl)methoxy]phenyl}-6-(furan-2-yl)thieno[2,3-d]pyrimidin-4-yl]oxy}-3-(2-methoxyphenyl)propanoic acid] | 1e-08 | – | 1.48 | – | –
COc1ccccc1C[C@@H](Oc1ncnc2sc(-c3ccco3)c(-c3ccc(OCCN4CCN(C)CC4)c(F)c3C)c12)C(=O)O (single isomer, unassigned) [Example 334] | 1.4e-08 | – | – | 0.968 | –
COc1ccccc1CC(Oc1ncnc2sc(C3CCCO3)c(-c3ccc(OCCN4CCN(C)CC4)c(Cl)c3C)c12)C(=O)O (single isomer, unassigned) [Example 591, (2R)-2-{[(5Sa)-5-{3-chloro-2-methyl-4-[2-(4-methylpiperazin-1-yl)ethoxy]phenyl}-6-((2R or S)-tetrahydrofuran-2-yl)thieno[2,3-d]pyrimidin-4-yl]oxy}-3-(2-methoxyphenyl)propanoic acid] | – | – | 1.67 | – | 6.5e-08
COc1ccccc1C[C@@H](Oc1ncnc2sc(-c3ccc(F)cc3)c(-c3ccc(CCCN4CCN(C)CC4)c(Cl)c3C)c12)C(=O)O (single isomer, unassigned) [Example 654] | – | – | – | 2.08 | 4e-08
Cc1c(-c2c(-c3ccc(F)cc3)sc3ncnc(OC(Cc4ccccc4OCC(F)(F)F)C(=O)O)c23)ccc(OCC2CCCN2C)c1Cl (single isomer, unassigned) [Example 658, (2R)-2-{[(5Sa)-5-{3-chloro-2-methyl-4-[((2S or R)-1-methylpyrrolidin-2-yl)methoxy]phenyl}-6-(4-fluorophenyl)thieno[2,3-d]pyrimidin-4-yl]oxy}-3-[2-(2,2,2-trifluoroethoxy)phenyl]propanoic acid] | – | – | 1.71 | – | 1.8e-08
COc1ccccc1C[C@@H](Oc1ncnc2sc(-c3ccc(F)cc3)c(-c3cc(F)c(OCCN4CCN(C)CC4)c(Cl)c3C)c12)C(=O)O (single isomer, unassigned) [Example 664] | – | – | – | 2.08 | 3.86e-08
COc1ccccc1C[C@@H](Oc1ncnc2sc(-c3cccc(F)c3F)c(-c3ccc(C#CCN4CCN(C)CC4)c(Cl)c3C)c12)C(=O)O (single isomer, unassigned) [Example 717] | – | – | – | 0.865 | 2.7e-08
COc1ccccc1-c1nccc(COc2ccccc2CC(Oc2ncnc3sc(-c4ccc(Oc5ccccc5)cc4)c(-c4ccc(OCCN5CCN(C)CC5)c(Cl)c4C)c23)C(=O)O)n1 (single isomer, unassigned) [Example 759] | – | – | 0.054 | – | 9.06e-09
COc1ccc(-c2sc3ncnc(OC(Cc4ccccc4OCc4ccnc(-c5ccccc5OC)n4)C(=O)O)c3c2-c2ccc(OCCN3CCN(C)CC3)c(Cl)c2C)cc1 (single isomer, unassigned) [Example 760] | – | 0.004 | – | – | 1.18e-09
COc1ccc(-c2sc3ncnc(OC(Cc4ccccc4OCc4ccnc(-c5ccccc5OC)n4)C(=O)O)c3c2-c2ccc(OCCN3CCN(C)CC3)c(Cl)c2C)cc1 (single isomer, unassigned) [Example 761] | – | 0.148 | – | – | 1.07e-07
COc1ccccc1-c1nccc(COc2ccccc2CC(Oc2ncnc3sc(-c4ccc(OCCN5CCOCC5)cc4)c(-c4ccc(OCCN5CCN(C)CC5)c(Cl)c4C)c23)C(=O)O)n1 (single isomer, unassigned) [Example 764] | – | – | 0.019 | – | 1.35e-09
